Literature values in patent US20130071435A1, “NOVEL HERBAL FORMULATION FOR THE MODULATION OF IMMUNE SYSTEM OF HIV INFECTED PATIENTS AND A PROCESS OF PREPARATION THEREOF” (Sunil Kumar Swamy Rajan and Arun Kumar Swamy Rajan, priority 2011, published 2013).

Details: experimental, in-vitro and in-vivo studies

Row | Substance | immuno-potentiating activity
1 | sitoindoside 1× | significant immuno-potentiating activity
2 | sitoindoside × | significant immuno-potentiating activity
